Assays:
[1] = tested on: HEK-293T cells; experiment: Blasticidin-S survival selection of HEK-293T cells with or without bsd-intein in FOXP1 exon 18b; assay type: cell-based, human
Source text: To knock-out MBNL1/2 (mucleblind-like protein 1/2, SEQ ID NO: 62 and SEQ ID NO: 63) in HEK293T cell cells which carries a blasticidin resistance gene flanked by inteins within the FOXP1 exon 18b, two plasmids expressing a mammalian codon-optimized Cas9 from S. pyogenes (SpCas9, SpyCas9) with a tandem C-terminal SV40 nuclear localization signal (SV40 NLS) via a CBh hybrid RNA-polymerase II promoter and human U6 driving a single-guide-RNA (sgRNA, gRNA) for SpyCas9 (SEQ ID NO: 23) with a cloned protospacer targeting MBNL1 and MBNL2 were co-transfected into the cells. 72 h later, cells were replated in a proper format and medium were supplemented with indicated blasticidin concentration. Control condition were transfected with the same conditions but the sgRNA is targeting the control locus AAVS1 (PPP1R12C) (safe-harbor locus AAVSI intronic region, SEQ ID NO. 64). Genomic DNA was isolated from blasticidin-treated surviving colonies with Wizard® Genomic DNA Purification Kit (Promega).
Next, the inventors checked whether the KO of reported suppressors of FOXP1 exon 18b by knocking out their constitutive exon of MBNL1 and MBNL2 are able to confer survival of the cells upon treatment with bs compared to a control condition where gRNA targeting the safe-harbor AAVS1 locus (PPP1R12C) was transfected instead. […]

[2] = tested on: Oaz1; experiment: FACS analysis of Oaz1-EXSISERS-transfected cells treated with polyamines (ribosomal frameshift readout); assay type: cell-based; conditions: increasing polyamine concentrations, verified by immunoblot
Source text: FIG. 7: Non-invasive protein-level quantification of co-translation regulation. […] Rising polyamine levels lead to a +1 frameshift and skipping of the in-frame stop codon leading to the full-length Oaz1 antizyme. The usage of the in-frame stop codon will otherwise lead to truncated non-functional Oaz1. Full-length Oaz1 binds and inactivates the enzyme Odc, the rate-limiting enzyme in the polyamine biosynthesis pathway, resulting in a product-mediated closed-loop homeostatic regulation of polyamine levels. […] Transfected (blue cells) cells were analyzed by counting the fraction of blue cells passing the green gate which is set to contain the 25% greenest cells in the untreated condition (0 mM).
Ribosomal frameshift-mediated regulations cannot be monitored by RT-qPCR or other RNA-based quantification methods. Exemplary, Oaz1, […] (FIG. 7a) was chosen, since it was known to be regulated by polyamine. gp41-1 split-inteins-flanked mNeonGreen and NrdJ-1-split-inteins-flanked mTagBFP2 were inserted into the full-length Oaz1 gene and transfected cells were treated with increasing polyamine concentrations to determine whether frameshift regulation could be read out via fluorescence quantification (FIG. 7b).

SMILES	cell survival ([1]; bs 5 to 12.5 μg/mL, reporter cells, control gRNA targeting AAVS1)	cell survival ([1]; unmodified HEK-293T cells, targeting MBNL1 and MBNL2 or AAVS1)	stop codon readthrough [2]
CN(CC[C@H](N)CC(=O)N[C@H]1C=C[C@H](n2ccc(N)nc2=O)O[C@@H]1C(=O)O)C(=N)N [bs, blasticidin-S]	no survival	no cells survived	
NCCCCNCCCN [spermidine]			stimulated
NCCCNCCCCNCCCN [spermine]			stimulated

From patent US20210388364A1, “METHOD FOR DETECTING A SPECIFIC SPLICE EVENT OF A GENE OF INTEREST” (Helmholtz Zentrum Müncher - Deutsches Forschungszentrum Für …, priority 2019, published 2021)
